The results in this text go back to PMC11680393 (Viruses, 2024).

Molecules are shown by their SMILES. pIC50: −log10 of the molar value. Where only a bound is given, the exact number is not on record here.

For one data set, the system named is RSV A2. Briefly: CPE assay, RSV A2 in HEp-2 cells (resazurin). Format: cell-based. The following applies: human respiratory syncytial virus, 120 h, RSV A2 0.2 MOI, 5 days.
A further data set in a line: in vitro. In kind it is cell-based, Human. Particulars: human; HEp-2 cells, 5 or 6 days; read-out: Cytotoxicity CC50.
In another data set the test system is HEp-2 cells. Kind of data set: in vitro. Format: cell-based, Human.

For the molecule `Cc1cnc(N2CC3(CCOCC3)C2)c(C(=O)Nc2ccc(C(=O)N3CCc4cc(C(=O)Nc5c(C)cccc5F)sc4-c4ccccc43)cc2)c1` [PC786], in the data set on RSV A2, the pIC50 (commonly −log10 of the IC50, conventionally taken in molar units) was 9.30. Also, in “in vitro”, the CC50 (commonly the concentration giving 50% cytotoxicity) was > 14000 nM. In addition, in the data set on HEp-2 cells, the “concentration up to which cell viability was not affected” value is given as ≥ 14 µM.
